Read-outs that look alike come from different tables or passages of the source. Non-standard residues stand in square brackets, D forms with d. Residues, ends and D or L forms follow the SMILES beside them. *: point of attachment. Dolaproine = CO[C@@H]([C@@H]1CCCN1)[C@@H](C)C(=O)O; Dil = CC[C@H](C)[C@H](NC)[C@@H](CC(=O)O)OC; X21 = CCCCCCCCCCCN(C)[C@H](C(=O)*)C(C)C; X8 = CCCCCCCCCCCCN(C)[C@H](C(=O)*)C(C)C; X12 = CCCCCCCCCCN(C)[C@H](C(=O)*)C(C)C; X11 = CCCCCCCCCN(C)[C@H](C(=O)*)C(C)C; X14 = CCCCCCCCN(C)[C@H](C(=O)*)C(C)C; X20 = CCCCCCCN(C)[C@H](C(=O)*)C(C)C; NMe2Val = CC(C)[C@@H](C(=O)*)N(C)C; X13 = CCCCCN(C)[C@H](C(=O)*)C(C)C; X9 = CCCCCCN(C)[C@H](C(=O)*)C(C)C; X10 = CCCCN(C)[C@H](C(=O)*)C(C)C; X15 = CCCN(C)[C@H](C(=O)*)C(C)C; X19 = CCN(C)[C@H](C(=O)*)C(C)C
Legend:
[1] = system: MDR− HL60 acute myeloid leukemia cell line; test: In vitro cytotoxicity (CellTiter-Glo cell proliferation assay), free drugs on HL60; format: cell-based; details: read-out: In vitro IC50 HL60 (MDR−)
Procedure: (§1) The cytotoxicity of an auristatin Ligand Drug Conjugate or free auristatin drug was measured by a cell proliferation assay employing the protocol described in Promega Corp. Technical Bulletin TB288; Mendoza et al., 2002, Cancer Res. 62:5485-5488), the methods of which is specifically incorporated by reference herein. Briefly, an aliquot of 100 μl of cell culture containing about […] (e.g., HL-60, SK-MEL-5, etc.) in medium is deposited in each well of a 96-well, opaque-walled plate. Control wells were prepared containing medium and without cells. Free Drug or conjugate is added to the experimental wells and incubated for 96 h and are then equilibrated to room temperature for approximately 30 minutes whereupon a volume of CellTiter-Glo™ reagent equal to the volume of cell culture medium present in each well is added. The contents are mixed for 2 minutes on an orbital shaker to induce cell lysis and the plate is incubated at room temperature for 10 minutes to stabilize the luminescence signal for recordation.

[2] = system: MDR+ HL60/RV acute myeloid leukemia cell line; test: In vitro cytotoxicity (CellTiter-Glo cell proliferation assay), free drugs on HL60/RV; format: cell-based; details: read-out: In vitro IC50 HL60/RV (MDR+)
Procedure: as §1

Compound | IC50 ([1]; free drug, 96 h incubation) [nM] | IC50 ([2]; free drug, 96 h incubation) [nM] | IC50 ([1]; Homo sapiens, HL-60, 96 h) [nM] | IC50 ([2]; Homo sapiens, HL-60, 96 h) [nM]
CC[C@H](C)[C@@H]([C@@H](CC(=O)N1CCC[C@H]1[C@H](OC)[C@@H](C)C(=O)N[C@@H](Cc1ccccc1)C(=O)O)OC)N(C)C(=O)[C@@H](NC(=O)[C@H](C(C)C)N(C)C)C(C)C [Compound 1, Auristatin F] (NMe2Val-V[Dil][Dolaproine]F-OH) | 137 | 388 | – | –
CC[C@H](C)[C@@H]([C@@H](CC(=O)N1CCC[C@H]1[C@H](OC)[C@@H](C)C(=O)N[C@@H](Cc1ccccc1)C(=O)O)OC)N(C)C(=O)[C@@H](NC(=O)[C@H](C(C)C)N(C)CC)C(C)C [Compound 4, Ethyl-AF] (X19-V[Dil][Dolaproine]F-OH) | – | – | 23.2 | 145
CCCN(C)[C@H](C(=O)N[C@H](C(=O)N(C)[C@@H]([C@@H](C)CC)[C@@H](CC(=O)N1CCC[C@H]1[C@H](OC)[C@@H](C)C(=O)N[C@@H](Cc1ccccc1)C(=O)O)OC)C(C)C)C(C)C [Compound 5, Propyl-AF] (X15-V[Dil][Dolaproine]F-OH) | – | – | 24.5 | 82.1
CCCCN(C)[C@H](C(=O)N[C@H](C(=O)N(C)[C@@H]([C@@H](C)CC)[C@@H](CC(=O)N1CCC[C@H]1[C@H](OC)[C@@H](C)C(=O)N[C@@H](Cc1ccccc1)C(=O)O)OC)C(C)C)C(C)C [Compound 6, Butyl-AF] (X10-V[Dil][Dolaproine]F-OH) | – | – | 14.3 | 47.9
CCCCCN(C)[C@H](C(=O)N[C@H](C(=O)N(C)[C@@H]([C@@H](C)CC)[C@@H](CC(=O)N1CCC[C@H]1[C@H](OC)[C@@H](C)C(=O)N[C@@H](Cc1ccccc1)C(=O)O)OC)C(C)C)C(C)C [Compound 7, Pentyl-AF] (X13-V[Dil][Dolaproine]F-OH) | – | – | 6.6 | 35.7
CCCCCCN(C)[C@H](C(=O)N[C@H](C(=O)N(C)[C@@H]([C@@H](C)CC)[C@@H](CC(=O)N1CCC[C@H]1[C@H](OC)[C@@H](C)C(=O)N[C@@H](Cc1ccccc1)C(=O)O)OC)C(C)C)C(C)C [Compound 8, Hexyl-AF] (X9-V[Dil][Dolaproine]F-OH) | – | – | 6.9 | 40.9
CCCCCCCN(C)[C@H](C(=O)N[C@H](C(=O)N(C)[C@@H]([C@@H](C)CC)[C@@H](CC(=O)N1CCC[C@H]1[C@H](OC)[C@@H](C)C(=O)N[C@@H](Cc1ccccc1)C(=O)O)OC)C(C)C)C(C)C [Compound 9, Heptyl-AF] (X20-V[Dil][Dolaproine]F-OH) | – | – | 7.7 | 88.5
CCCCCCCCN(C)[C@H](C(=O)N[C@H](C(=O)N(C)[C@@H]([C@@H](C)CC)[C@@H](CC(=O)N1CCC[C@H]1[C@H](OC)[C@@H](C)C(=O)N[C@@H](Cc1ccccc1)C(=O)O)OC)C(C)C)C(C)C [Compound 10, Octyl-AF] (X14-V[Dil][Dolaproine]F-OH) | – | – | 3.9 | 55.9
CCCCCCCCCN(C)[C@H](C(=O)N[C@H](C(=O)N(C)[C@@H]([C@@H](C)CC)[C@@H](CC(=O)N1CCC[C@H]1[C@H](OC)[C@@H](C)C(=O)N[C@@H](Cc1ccccc1)C(=O)O)OC)C(C)C)C(C)C [Compound 11, Nonyl-AF] (X11-V[Dil][Dolaproine]F-OH) | – | – | 1.8 | 35.4
CCCCCCCCCCN(C)[C@H](C(=O)N[C@H](C(=O)N(C)[C@@H]([C@@H](C)CC)[C@@H](CC(=O)N1CCC[C@H]1[C@H](OC)[C@@H](C)C(=O)N[C@@H](Cc1ccccc1)C(=O)O)OC)C(C)C)C(C)C [Compound 12, Decyl-AF] (X12-V[Dil][Dolaproine]F-OH) | – | – | 1 | 59.2
CCCCCCCCCCCN(C)[C@H](C(=O)N[C@H](C(=O)N(C)[C@@H]([C@@H](C)CC)[C@@H](CC(=O)N1CCC[C@H]1[C@H](OC)[C@@H](C)C(=O)N[C@@H](Cc1ccccc1)C(=O)O)OC)C(C)C)C(C)C [Compound 13, Undecyl-AF] (X21-V[Dil][Dolaproine]F-OH) | – | – | 1 | 60.2
CCCCCCCCCCCCN(C)[C@H](C(=O)N[C@H](C(=O)N(C)[C@@H]([C@@H](C)CC)[C@@H](CC(=O)N1CCC[C@H]1[C@H](OC)[C@@H](C)C(=O)N[C@@H](Cc1ccccc1)C(=O)O)OC)C(C)C)C(C)C [Compound 14, Dodecyl-AF] (X8-V[Dil][Dolaproine]F-OH) | – | – | 1.4 | 138

From patent US11857565B2, “Hydrophobic Auristatin F compounds and conjugates thereof” (priority 2018, dated 2024)
